Experimental findings from patent US20230241190A1, “VACCINE FOR TREATING MULTIPLE SCLEROSIS” (RESEARCH & BUSINESS FOUNDATION SUNGKYUNKWAN UNIVERSITY, priority 2022, published 2023) are described below.

The experiment has as its system EAE (experimental autoimmune encephalomyelitis). The experiment is described as follows: EAE semi-therapeutic vaccine study (clinical score, EAE-free mice). It is filed as in vivo, C57BL/6 mice. The settings on record: intravenous injection on days 4, 7 and 10 after EAE induction (semi-therapeutics). As to the method: EAE was induced in female C57BL/6 mice aged 10-11 weeks using a kit (EK-2110) from Hooke Laboratory (Lawrence, Mass., USA). Briefly, on day 0, mice were subcutaneously injected with an emulsion containing MOG35-55 peptide and complete Freund's adjuvant (CFA), in the lower and upper back. After 2 and 24 h, the animals were intraperitoneally injected with pertussis toxin (PTX) according to the manufacturer's instructions. EAE clinical score was evaluated after day 8, post-EAE induction based on the standard protocol in a blinded manner (0, no obvious symptoms; 0.5, tip of tail was limp; 1, limp tail; 1.5, limp tail and hind leg inhibition; 2, limp tail and weakness of hind legs; 2.5, limp tail and dragging of hind legs; 3, complete paralysis of hind legs; 3.5, complete paralysis of hind legs and hind legs together on one side of the body; 4, full hind leg and partial front leg paralysis; 4.5 full hind leg and partial front leg paralysis, no movement). Paralyzed mice were given easier access to water and food. Mice were euthanized if any of the following conditions were observed unable to eat, unresponsive when scored as 4, when scored as 4 for two consecutive days, both hind limbs and forelimbs were completely paralyzed. […]

For “myelin oligodendrocyte glycoprotein (MOG) peptide 35-55 [soluble MOG]”, the “EAE progression / development (clinical score)” value was “slightly delayed EAE progression”.
